Data set [1] relates to wild type MCF-7 human breast cancer cells. In words: MCF-7 proliferation assay, wild type cells (cytofluor). Type of data set: cell-based. Conditions: WT MCF-7 breast cancer cells. The text has this: (§1) Tables 1 and 2 show the concentrations required for IC50 inhibition in cultures of wild type and multi-drug resistant MCF-7 human breast cancer cells, respectively. These tables show polyoxotungstates used on MCF-7 proliferation assay.

Data set [2] is described as follows: Toxicity in mice (body weight, necropsy). It counts as in vivo. Conditions: subcutaneously, weekly for 10 weeks. The procedure:
We have identified a class of heteropolyanions that have anticancer activity. This class consists of metal ion derivatives of polyoxotungstate, hereinafter referred to as HPA. These heteropolyanions (HPA) are synthesized by methods outlined in Heteropoly and Isopoly Oxometalates, Michael Thor Pope, Springer Verlag, Berlin, Germany 1983. They are water soluble and stable at room temperature and are effective at very low concentrations (1 μM) in cell cultures. […] Oral and intramuscular administration were also tested. Drugs were dissolved in aqueous solutions for administration. Preferred HPA drugs are HPA-Na and HPA-Sm.

Data set [3] concerns A-FABP. Kind of data set: RT-PCR of A-FABP expression in LNCAP cells grown with drug. It counts as cell-based, human. The note with it: 1 uM, 48 hr, listed as HPA-Na. The method, then: (§2) FIG. 18 is a graph showing LNCAP cells grown in the presence of 1 uM HPA-Na for 48 hr. At that time, cells were harvested, RNA prepared by the method of TRIZOL, and levels of various FABPs were measured by RT-PCR.
(§3) For RT-PCR, equal amounts of RNA were used for the reverse transcriptase reaction to make cDNA. The cDNA was then used for the PCR reaction using specific primers for the different fatty acid binding proteins. Also, PCR was performed for genes such as Actin whose level stays generally the same in all the samples. The PCR products were resolved on agarose gel and the picture under UV was saved in the computer as a TIFF file. Using the NIH Image Program 1.6–1, gel optical units were digitized and obtained for each band observed. The values of the FABP PCR fragments were therefore normalized to the Actin values for each sample. In the figures, the data is represented in Optical Density Units versus the FABP and cell type from Breast and Prostate tissues.
(§4) The RNA was isolated using the Trizol method and RT-PCR analysis of the proteins was performed by using primers specific for each FABP. […] The method of quantitation of PCR product was as follows: for internal quantitation control actin primers was used, all the gels were scanned in a gel scanner and digitized using the NIH-Image program for quantitation. […]

Data set [4] relates to A-FABP. Kind of data set: RT-PCR of A-FABP expression in MCF-7 cells grown with drug. It counts as cell-based, human. The note with it: 1 uM, 48 hr. The procedure: (§5) FIGS. 17a and 17b are graphs showing MCF-7 cells grown in the presence of 1 uM HPA-Na for 48 hr and RNA isolated for FABP measurement.
as §3
(§6) The RNA was isolated using the Trizol method and RT-PCR analysis of the proteins was performed by using primers specific for each FABP. Equal amount of RNA was used for RT-PCR and PCR master mix was used to avoid any handling errors. […] The method of quantitation of PCR product was as follows: for internal quantitation control actin primers was used, all the gels were scanned in a gel scanner and digitized using the NIH-Image program for quantitation. […]

In a further data set the test system is brain-FABP. In words: RT-PCR of brain-FABP expression in MCF-7 cells grown with drug. It counts as cell-based, human. The note with it: 1 uM, 48 hr. The procedure: as §5, §3, §6
The subject of data set [5] is multi-drug resistant MCF-7 ADR human breast cancer cells. Kind of data set: MCF-7 proliferation assay, multi-drug resistant cells (cytofluor). Type of data set: cell-based. Conditions: ADR MCF-7 breast cancer cells.
Description: as §1

The test system of data set [6] is E-FABP. In words: RT-PCR of E-FABP expression in LNCAP cells grown with drug. It counts as cell-based, human. Conditions: 1 uM. The method, then: as §2, §3, §4
A further data set relates to I-FABP. In words: RT-PCR of I-FABP expression in LNCAP cells grown with drug. Type of data set: cell-based, human. The note with it: in the presence of drug, listed as HPA-Na. The procedure:
as §2, §3, §4

The next data set relates to LNCAP prostate cells. In words: Growth of prostate cancer cells (Cytofluor). It counts as cell-based, human. The note with it: prostate (and breast) cancer cells.
Data set [7] relates to E-FABP. In words: RT-PCR of E-FABP expression in MCF-7 cells grown with drug. The note with it: 1 uM, 48 hr. Type of data set: cell-based, human. The procedure:
as §5, §3, §6

Setting [8] is: experiment 1, read-out: IC50 (Exp. 1).
Setting [9] is: experiment 2, read-out: IC50 (Exp. #2).

This is an account of results in patent US7175981B2, “Method of diagnosing stage or aggressiveness of breast and prostate cancer based on levels of fatty acid binding proteins” (The United States of America as represented by the …, priority 1998, dated 2007).

Entries after “also recorded” stand apart in the source; their conditions may differ. Like-named read-outs stand apart in the source and are kept apart here.

Regarding K12.5Na1.5[NaP5W30O110] · nH2O, the IC50 came to 3.8 µM in data set [1] (setting [8]), 3.5 µM in data set [1] (setting [9]) and 2.1 µM in data set [5] (setting [9]). In addition, the “toxicity in mice (weights, necropsy)” value in [2] is on record as “no indications of toxicity was observed”. Also, the “change in level of A-FABP” value with A-FABP [3] is “increased the levels of A-FABP in LNCAP to a level similar to the normal values; also recorded: increasing A-FABP; also recorded: markedly elevated”; with A-FABP [4], “dramatically increased”. Besides, the “change in level of brain-FABP” value in the data set with brain-FABP is “decreased significantly”. Besides, the results for the “change in level of E-FABP” value in the data set with E-FABP [6] and with E-FABP [7] were “altered in a similar manner” and “dramatically increased”, respectively. The “change in level of I-FABP” value with I-FABP is given as “decreasing I-FABP; also recorded: decrease”. Besides, the “effect on proliferation of cancer cells” value in the data set with LNCAP prostate cells was “blocked”.
K12[BiP5W30O110] · nH2O: the IC50 stood at 5 µM in [1] (setting [9]), 3 µM in data set [5] (setting [8]) and 2.5 µM in data set [5] (setting [9]).
Turning to K12[CeP5W30O110] · nH2O, the IC50 in data set [1] (setting [8]) came to 4.3 µM; in [1] (setting [9]) it was 5 µM; in [5] (setting [8]), 3.8 µM; in data set [5] (setting [9]), 3 µM.
As to K12[DyP5W30O110] · nH2O, the IC50 is 4.3 µM in data set [1] (setting [8]), 5 µM in data set [1] (setting [9]), 3.8 µM in data set [5] (setting [8]) and 2.3 µM in [5] (setting [9]).
In the case of K12[ErP5W30O110] · nH2O, the IC50 in data set [1] (setting [8]) is 4.3 µM; in data set [1] (setting [9]) it was 6 µM; in data set [5] (setting [8]), 4 µM; in data set [5] (setting [9]) it was 1 µM.
As for K12[EuP5W30O110] · nH2O, the IC50 in [1] (setting [9]) was 4.5 µM; in data set [5] (setting [8]), 0.25 µM; in data set [5] (setting [9]), 3.8 µM.
As for K12[GdP5W30O110] · nH2O, the IC50 was found to be 2 µM in [1] (setting [8]), 8 µM in data set [1] (setting [9]), 4.3 µM in data set [5] (setting [8]) and 4.6 µM in data set [5] (setting [9]).
For K12[HoP5W30O110] · nH2O, the IC50 in data set [1] (setting [8]) was 3 µM; in data set [1] (setting [9]) it was 4.5 µM; in [5] (setting [8]) it was 0.25 µM; in data set [5] (setting [9]) it was 4 µM.
The corresponding values for K12[LuP5W30O110] · nH2O are 1 µM, 5 µM, 4.5 µM and 5.5 µM.
With K12[SmP5W30O110] · nH2O, the IC50 in data set [1] (setting [8]) turned out to be 0.5 µM; in data set [1] (setting [9]) it was 2.5 µM; in data set [5] (setting [8]), 3.8 µM; in data set [5] (setting [9]) it was 4.1 µM.
For K12[TbP5W30O110] · nH2O, in that order: 1 µM, 8 µM, 3.5 µM and 4.9 µM.
As to K12[TmP5W30O110] · nH2O, the IC50 in data set [1] (setting [8]) worked out at 0.25 µM; in data set [1] (setting [9]), 10 µM; in [5] (setting [8]), 4 µM; in [5] (setting [9]) it was 6 µM.
As for K12[UP5W30O110] · nH2O, the IC50 in data set [1] (setting [8]) stood at 1 µM; in [1] (setting [9]) it was 10 µM; in [5] (setting [8]), 5.8 µM; in data set [5] (setting [9]), 4.8 µM.
Consider K12[YbP5W30O110] · nH2O, for which the IC50 in data set [1] (setting [8]) was 3.8 µM; in data set [1] (setting [9]), 3.7 µM; in [5] (setting [8]) it was 5 µM; in data set [5] (setting [9]) it was 6.3 µM.
With K13[CaP5W30O110] · nH2O, the IC50 in data set [1] (setting [8]) is 4.5 µM; in [1] (setting [9]), 5 µM; in data set [5] (setting [8]) it was 3.8 µM; in data set [5] (setting [9]), 6.8 µM.

The term IC50 denotes the point on the concentration scale where inhibition reaches its midpoint.
